Laboratory results taken from patent US9624198B2, “Substituted piperidinyltetrahydroquinolines” (Bayer Pharma Aktiengesellschaft, priority 2013, dated 2017).

Key:
human α2C receptor = human α2C receptor (Homo sapiens (Human), UniProt P18825); experiment: Antagonism against adrenoreceptor α2C (luminescence, recombinant CHO cell line, noradrenaline stimulation); format: cell-based; conditions: 20 nM noradrenaline
Method: B-1a) Antagonism Against Adrenoreceptors
Antagonism against the adrenoreceptor α1A was tested using a recombinant human α1A receptor CHO cell line which additionally also recombinantly expresses mtAeq (mitochondrial aequorin). Antagonism against the adrenoreceptor α2A was tested using a recombinant human α2A-Gα16 receptor fusion protein CHO cell line (PerkinElmer Life Sciences) which additionally also recombinantly expresses mtAeq. Antagonism against the adrenoreceptor α2B was tested using a recombinant human α2B receptor CHO cell line (PerkinElmer Life Sciences) which additionally also recombinantly expresses mtAeq. Antagonism against the adrenoreceptor α2C was tested using a recombinant human α2C receptor CHO cell line which additionally also recombinantly expresses a chimaric G protein (Gαqi3) and mtOb (mitochondrial obelin).
The cells were cultivated at 37° C. and 5% CO2 in Dulbecco's modified Eagle's Medium/NUT mix F12 with L-glutamine which additionally contains 10% (v/v) inactivated foetal calf serum, 1 mM sodium pyruvate, 0.9 mM sodium bicarbonate, 50 U/ml penicillin, 50 μg/ml streptomycin, 2.5 μg/ml amphotericin B and 1 mg/ml Geneticin. The cells were passaged with enzyme-free Hank's-based cell dissociation buffer. All cell culture reagents used were from Invitrogen (Carlsbad, USA).
Luminescence measurements were carried out on white 384-well microtitre plates. 2000 cells/well were plated in a volume of 25 μl and cultivated for one day at 30° C. and 5% CO2 in cell culture medium with coelenterazine (α2A and α2B: 5 μg/ml; α1a/c and α2C: 2.5 μg/ml). Serial dilutions of the test substances (10 μl) were added to the cells. After 5 minutes, noradrenaline was added to the cells (35 μl; final concentrations: 20 nM (α1a/c, and α2C) or 200 nM (α2A and α2B)), and the emitted light was measured for 50 seconds using a CCD (charge-coupled device) camera (Hamamatsu Corporation, Shizuoka, Japan) in a light-tight box. The test substances were tested up to a maximum concentration of […] The IC50 values were calculated from the appropriate dose-response curves.

[1] = test system: diabetic (ZDFfa/fa) and healthy rats (Wistar); experiment: Assay of perfusion-enhancing substances (microcirculation), laser doppler probe at the paw; format: in vivo, rat; conditions: single oral dose; for MED skin temperature: minimum effective dose for significant increase of skin temperature (ttest); for MED microcirculation: minimum effective dose with significantly improved microcirculation vs placebo; for MED microcirculation / factor by which microcirculation is improved at MED compared to placebo: 30 min after administration; for factor by which microcirculation is improved at MED compared to placebo: at the MED
Description: B-2e) Assay of Perfusion-Enhancing Substances (Microcirculation)
In diabetic (ZDFfa/fa) and healthy rats (Wistar), a laser doppler probe was fastened under anaesthesia conditions (isoflurane anaesthesia) at the sole of the paw for measuring cutaneous microcirculation. The test animals were once treated orally with the test substances. During the experiment, microperfusion and temperature of the lower extremities were documented continuously. Here, a temperature-sensitive laser doppler probe (Periflux, O2C) was fastened with adhesive to the paws of the animals, allowing the measurement of microperfusion and skin temperature. The microcirculation measurement values were measured on both paws 30 min after oral administration of the test substance. […] Also stated is the MED for the significant increase of skin temperature (ttest).
Microcirculation data for adrenoreceptor α2c antagonist of Example 8 and for the comparative substance ORM12741, an AR α2c antagonist from Orion, are shown in Table 2: […]

[2] = test system: conscious female Wistar rats; experiment: Radiotelemetric measurement of blood pressure and heart rate of conscious rats; format: in vivo, rat
Description: B-2l) Radiotelemetric Measurement of Blood Pressure and Heart Rate of Conscious Rats
A commercially available telemetry system from Data Sciences International DSI, USA, was employed for the measurements on conscious rats described below. The system consists of 3 main components: (1) implantable transmitters (Physiotel® telemetry transmitter), (2) receivers (Physiotel® receiver), which are linked via a multiplexer (DSI Data Exchange Matrix) to a (3) data acquisition computer. The telemetry system makes it possible to continuously record blood pressure, heart rate and body motion of conscious animals in their usual habitat.
The studies were conducted on adult female Wistar rats with a body weight of >200 g. After transmitter implantation, the experimental animals were housed singly in type III Makrolon® cages. They had free access to standard feed and water. The day/night rhythm in the test laboratory was set by changing the illumination of the room.
The telemetry transmitters used (PA-C40, DSI) were surgically implanted under aseptic conditions in the experimental animals at least 14 days before the first experimental use. […]
Each of the instrumented rats living in the system was assigned a separate receiving antenna (RPC-1 Receiver, DSI). […] The signals emitted were detected online by a data acquisition system (Dataquest™ A.R.T. for Windows, DSI) and processed accordingly.
In the standard procedure, the following were measured for 10-second periods in each case: (1) systolic blood pressure (SBP), (2) diastolic blood pressure (DBP), (3) mean arterial pressure (MAP) and (4) heart rate (HR) and (5) activity (ACT). These parameters were measured over 24 hours after administration.
The acquisition of measurements was repeated under computer control at 5-minute intervals. The source data obtained as absolute values were corrected in the diagram with the currently measured barometric pressure (Ambient Pressure Reference Monitor, APR-1, DSI). […]

human α2C receptor, sequence (P18825 whole entry): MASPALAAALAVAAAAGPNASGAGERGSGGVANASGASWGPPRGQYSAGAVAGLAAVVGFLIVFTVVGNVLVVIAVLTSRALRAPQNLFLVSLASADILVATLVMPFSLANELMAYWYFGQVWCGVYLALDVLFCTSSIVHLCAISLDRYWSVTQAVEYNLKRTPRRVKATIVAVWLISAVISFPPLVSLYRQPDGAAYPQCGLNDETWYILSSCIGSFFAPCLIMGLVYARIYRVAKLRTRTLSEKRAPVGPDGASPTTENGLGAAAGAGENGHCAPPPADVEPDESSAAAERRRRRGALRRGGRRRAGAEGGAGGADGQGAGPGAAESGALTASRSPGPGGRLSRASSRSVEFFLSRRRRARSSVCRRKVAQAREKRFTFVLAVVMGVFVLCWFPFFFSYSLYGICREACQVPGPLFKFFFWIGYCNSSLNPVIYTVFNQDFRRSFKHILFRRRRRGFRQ

Row | Compound | IC50 (human α2C receptor) [nM] | MED skin temperature [1] | MED microcirculation [1] | factor by which microcirculation is improved at MED compared to placebo [1] [×] | further results
1 | COCCNc1ccc(C(=O)N2CCC(N3CCc4ccccc4C3)CC2)cn1 [Example 1, [4-(3,4-Dihydroisoquinolin-2-(1H)-yl)piperidin-1-yl]{6-[(2-methoxyethyl)amino]pyridin-3-yl}-methanone] | 22 | 1 mg/kg | 1 mg/kg | 1.8 | 
2 | COCCNc1ccc(C(=O)N2CCC(N3CCc4ccc(F)cc4C3)CC2)cn1 [Example 2, [4-(7-Fluoro-3,4-dihydroisoquinolin-2(1H)-yl)piperidin-1-yl]{6-[(2-methoxyethyl)amino]pyridin-3-yl}methanone] | 13 |  |  |  | 
3 | O=C(c1ccc(N2CCOCC2)nc1)N1CCC(N2CCc3ccccc3C2)CC1 [Example 3, [4-(3,4-Dihydroisoquinolin-2(1H)-yl)piperidin-1-yl][6-(morpholin-4-yl)pyridin-3-yl]methanone] | 9 |  |  |  | 
4 | O=C(c1ccc(N2CCS(=O)(=O)CC2)nc1)N1CCC(N2CCc3ccccc3C2)CC1 [Example 4, [4-(3,4-Dihydroisoquinolin-2(1H)-yl)piperidin-1-yl][6-(1,1-dioxidothiomorpholin-4-yl)pyridin-3-yl]methanone] | 24 | 0.1 mg/kg | 0.1 mg/kg | 2.4 | haemodynamic effects (blood pressure, heart rate) ([2]; conscious rats, oral administration, 24 hours telemetry): no haemodynamic effects; heart rate ([2]; oral dose of 3 and 10 mg/kg): slight transient increase in the heart rate
5 | COC[C@H]1CCCN1c1ccc(C(=O)N2CCC(N3CCc4ccccc4C3)CC2)cn1 [Example 5, [4-(3,4-Dihydroisoquinolin-2(1H)-yl)piperidin-1-yl]{6-[(2R)-2-(methoxymethyl)pyrrolidin-1-yl]pyridin-3-yl}methanone] | 65 |  |  |  | 
6 | O=C(O)[C@H]1CCCN1c1ccc(C(=O)N2CCC(N3CCc4ccccc4C3)CC2)cn1 [Example 6, 1-(5-{[4-(3,4-Dihydroisoquinolin-2(1H)-yl)piperidin-1-yl]carbonyl}pyridin-2-yl)-D-proline] | 27 | no effect | no effect | ≤ 1.3 | 
7 | CC[C@@H](CO)Nc1ccc(C(=O)N2CCC(N3CCc4ccccc4C3)CC2)cn1 [Example 7, [4-(3,4-Dihydroisoquinolin-2(1H)-yl)piperidin-1-yl](6-{[(2S)-1-hydroxybutan-2-yl]amino}pyridin-3-yl)methanone] | 21 |  |  |  | 
8 | COC1CCN(c2ccc(C(=O)N3CCC(N4CCc5cc(F)ccc5C4)CC3)cn2)C1 (centres unmarked) [Example 8, [4-(6-Fluoro-3,4-dihydroisoquinolin-2(1H)-yl)piperidin-1-yl][6-(3-methoxypyrrolidin-1-yl)pyridin-3-yl]methanone] | 58 |  |  |  | 
9 | COc1ccc2c(c1)CCN(C1CCN(C(=O)c3ccc(N4CCC(OC)C4)nc3)CC1)C2 (centres unmarked) [Example 9, [4-(6-Methoxy-3,4-dihydroisoquinolin-2(1H)-yl)piperidin-1-yl][6-(3-methoxypyrrolidin-1-yl)pyridin-3-yl]methanone] | 11 |  |  |  | 
10 | O=C(c1ccc(N2CC3(COC3)C2)nc1)N1CCC(N2CCc3ccccc3C2)CC1 [Example 10, [4-(3,4-Dihydroisoquinolin-2(1H)-yl)piperidin-1-yl][6-(2-oxa-6-azaspiro[3.3]hept-6-yl)pyridin-3-yl]methanone] |  | 0.03 mg/kg | 0.03 mg/kg | 2.1 | 
11 | CC1CN(c2ccc(C(=O)N3CCC(N4CCc5ccccc5C4)CC3)cn2)CC(C)O1 (centres unmarked) [Example 11, [4-(3,4-Dihydroisoquinolin-2(1H)-yl)piperidin-1-yl][6-(2,6-dimethylmorpholin-4-yl)pyridin-3-yl]methanone] | 11 |  |  |  | 
12 | CC1CN(c2ccc(C(=O)N3CCC(N4CCc5ccccc5C4)CC3)cn2)CC(C)O1 (centres unmarked) [Example 12, [4-(3,4-Dihydroisoquinolin-2(1H)-yl)piperidin-1-yl][6-(2,6-dimethylmorpholin-4-yl)pyridin-3-yl]methanone] | 21 |  |  |  | 
13 | CC1(C)CN(c2ccc(C(=O)N3CCC(N4CCc5ccccc5C4)CC3)cn2)CCO1 [Example 13, [4-(3,4-Dihydroisoquinolin-2(1H)-yl)piperidin-1-yl][6-(2,2-dimethylmorpholin-4-yl)pyridin-3-yl]methanone] | 53 |  |  |  | 
14 | O=C(c1ccc(N2CCOC(C(F)(F)F)C2)nc1)N1CCC(N2CCc3ccccc3C2)CC1 (centres unmarked) [Example 14, [4-(3,4-Dihydroisoquinolin-2(1H)-yl)piperidin-1-yl]{6-[2-(trifluoromethyl)morpholin-4-yl]pyridin-3-yl}methanone] | 23 |  |  |  | 
15 | O=C(c1ccc(N2CC3(C2)CS(=O)(=O)C3)nc1)N1CCC(N2CCc3ccccc3C2)CC1 [Example 15, [4-(3,4-Dihydroisoquinolin-2(1H)-yl)piperidin-1-yl][6-(2,2-dioxido-2-thia-6-azaspiro[3.3]hept-6-yl)pyridin-3-yl]methanone] | 53 |  |  |  | 
16 | COC[C@@]1(C)CCCN2CCc3c(oc4ccccc34)[C@@H]21 [ORM-12741, reference compound] |  | 0.01 mg/kg | 0.1 mg/kg | 1.9 | blood pressure ([2]; 10 mg/kg, oral): additional reduction in blood pressure
